Assay results: patent US8889671B2, “Compounds and methods for treating bacterial infections” (AstraZeneca AB, priority 2013, dated 2014)
In brackets after ≈: the same amount, converted by molar mass. Like-named read-outs stand apart in the source and are kept apart here.

Tests used:
Clostridium difficile = test: In vitro antibacterial activity of Example 5 against anaerobes (MIC, agar dilution); format: cell-based; details: Clostridioides difficile
Staphylococcus aureus [1] = test: In vitro antibacterial activity of Example 5 (MIC); format: cell-based
Proteus vulgaris = test: In vitro antibacterial activity of Example 5 (MIC); format: cell-based
Citrobacter koseri = test: In vitro antibacterial activity of Example 5 (MIC); format: cell-based
[2] = system: Bacteroides thetaiotaomicron; test: In vitro antibacterial activity of Example 5 against anaerobes (MIC, agar dilution); format: cell-based
Staphylococcus aureus [3] = test: S. aureus neutropenic mouse thigh infection model, PK/PD; details: for AUC value for 1-log reduction / AUC value for stasis: ip, with ABT
[4] = system: Stenotrophomonas maltophilia; test: In vitro antibacterial activity of Example 5 (MIC); format: cell-based
Escherichia coli [5] = test: In vitro antibacterial activity of Example 5 (MIC); format: cell-based
Clostridium perfringens = test: microbe, parasite or virus in culture; format: cell-based
Bacteroides fragilis = test: In vitro antibacterial activity of Example 5 against anaerobes (MIC, agar dilution); format: cell-based
Haemophilus influenzae [6] = test: In vitro antibacterial activity of Example 5 (MIC); format: cell-based
Finegoldia magna = test: In vitro antibacterial activity of Example 5 against anaerobes (MIC, agar dilution); format: cell-based; details: ATCC53516; Finegoldia magna (ATCC 53516)
[7] = system: Streptococcus constellatus; test: In vitro antibacterial activity of Example 5 (MIC); format: cell-based
Citrobacter freundii = test: In vitro antibacterial activity of Example 5 (MIC); format: cell-based
[8] = system: 7 S. aureus strains and 1 strain of Streptococcus pyogenes; test: Minimum bactericidal concentration (MBC); format: cell-based, Staphylococcus aureus; Streptococcus pyogenes; details: 7 S. aureus strains and 1 S. pyogenes strain
Acinetobacter baumannii = test: In vitro antibacterial activity of Example 5 (MIC); format: cell-based
[9] = system: Streptococcus pyogenes ATCC12384; test: S. pyogenes neutropenic mouse thigh infection model, PK/PD
Klebsiella pneumoniae [10] = test: In vitro antibacterial activity of Example 5 (MIC); format: cell-based
Escherichia coli [11] = test: Susceptibility testing (MIC) Assay 2, broth microdilution; format: cell-based; details: K12, read-out: Eco MIC
Haemophilus influenzae [12] = test: as above; format: cell-based; details: ATCC51907, Haemophilus influenzae, ATCC 51907, in vivo strain, read-out: Hin MIC
Pseudomonas aeruginosa = test: as above; format: cell-based; details: PAO1, read-out: Pae MIC
Klebsiella pneumoniae [13] = test: as above; format: cell-based; details: clinical isolate, mucoid, read-out: Kpn MIC
[14] = S. aureus MRSA neutropenic dose response
[15] = S. aureus MRSA, neutropenic mouse thigh
[16] = S. aureus MSSA neutropenic dose response
[17] = S. aureus MSSA, neutropenic mouse thigh
[18] = S. aureus USA100, neutropenic mouse thigh
[19] = S. aureus USA100 neutropenic dose response
[20] = S. aureus USA300, neutropenic mouse thigh
[21] = S. aureus USA300 neutropenic dose response
[22] = S. pyogenes ATCC12384, neutropenic mouse thigh

C[C@@H]1CN2c3c(cc4c(N5C(=O)OC[C@@H]5C)noc4c3F)CC3(C(=O)NC(=O)NC3=O)[C@H]2[C@H](C)O1 [Example 5, (2R,4S,4aS)-11-Fluoro-2,4-dimethyl-8-[(4S)-4-methyl-2-oxo-1,3-oxazolidin-3-yl]-1,2,4,4a-tetrahydro-2′H,6H-spiro[1,4-oxazino[4,3-a][1,2]oxazolo[4,5-g]quinoline-5,5′-pyrimidine]-2′,4′,6′(1′H,3′H)-trione]
MIC (Clostridium difficile; ATCC70057, Clostridium difficile (ATCC 70057, CLSI QC Strain)): 0.125 µg/mL (≈ 0.256 µM) | MIC (Clostridium difficile; Clostridium difficile): 0.125 µg/mL (≈ 0.256 µM) | MIC90 (Staphylococcus aureus [1]; 100 strains of S. aureus): 0.25 µg/mL (≈ 0.513 µM) | MIC (Staphylococcus aureus [1]; ATCC29213, Staphylococcus aureus (ATCC 29213, CLSI QC Strain)): 0.125 µg/mL (≈ 0.256 µM) | MIC (Staphylococcus aureus [1]; ATCC29213, Staphylococcus aureus + 2%Human albumin (ATCC 29213, CLSI QC Strain)): 0.25 µg/mL | MIC (Staphylococcus aureus [1]; MRSA / USA100, Staphylococcus aureus (MRSA, USA100)): 0.125 µg/mL (≈ 0.256 µM) | MIC (Staphylococcus aureus [1]; MRSA, Staphylococcus aureus (MRSA)): 0.5 µg/mL (≈ 1.03 µM) | MIC (Staphylococcus aureus [1]; MRSA, Staphylococcus aureus (MRSA, fluoroquinolone-R)): 0.25 µg/mL (≈ 0.513 µM) | MIC (Staphylococcus aureus [1]; MSSA, Staphylococcus aureus (MSSA, in vivo strain)): 0.125 µg/mL (≈ 0.256 µM) | MIC (Staphylococcus aureus [1]; Staphylococcus aureus (In vivo Strain)): 0.25 µg/mL (≈ 0.513 µM) | MIC (Staphylococcus aureus [1]; VISA, Staphylococcus aureus (Mu3, VISA)): 0.25 µg/mL (≈ 0.513 µM) | MIC (Proteus vulgaris): 32 µg/mL (≈ 65.6 µM) | MIC (Citrobacter koseri): 64 µg/mL (≈ 131 µM) | MIC ([2]; ATCC29741, Bacteroides thetaiotaomicron (ATCC 29741, CLSI QC Strain)): 8 µg/mL (≈ 16.4 µM) | MIC ([2]; Bacteroides thetaiotaomicron): 8 µg/mL (≈ 16.4 µM) | AUC/MIC (free), 1-log reduction ± SEM (Staphylococcus aureus [3]; [14]): 96 ± 35 | AUC/MIC (free), EC50 ± SEM (Staphylococcus aureus [3]; [14]): 53 ± 25 | AUC/MIC (free), Stasis ± SEM (Staphylococcus aureus [3]; [14]): 43 ± 5 | AUC value for 1-log reduction (Staphylococcus aureus [3]; [15]): 55 μg·h/mL | AUC value for stasis (Staphylococcus aureus [3]; [15]): 24 µg·h/mL | AUC/MIC (free), 1-log reduction ± SEM (Staphylococcus aureus [3]; [16]): 245 ± 81 | AUC/MIC (free), EC50 ± SEM (Staphylococcus aureus [3]; [16]): 71 ± 28 | AUC/MIC (free), Stasis ± SEM (Staphylococcus aureus [3]; [16]): 98 ± 17 | AUC value for 1-log reduction (Staphylococcus aureus [3]; [17]): 69 μg·h/mL | AUC value for stasis (Staphylococcus aureus [3]; [17]): 28 µg·h/mL | AUC value for 1-log reduction (Staphylococcus aureus [3]; [18]): 47 μg·h/mL | AUC value for stasis (Staphylococcus aureus [3]; [18]): 25 µg·h/mL | AUC/MIC (free), 1-log reduction ± SEM (Staphylococcus aureus [3]; [19]): 83 ± 23 | AUC/MIC (free), EC50 ± SEM (Staphylococcus aureus [3]; [19]): 34 ± 14 | AUC/MIC (free), Stasis ± SEM (Staphylococcus aureus [3]; [19]): 43 ± 5 | AUC value for 1-log reduction (Staphylococcus aureus [3]; [20]): 150 μg·h/mL | AUC value for stasis (Staphylococcus aureus [3]; [20]): 91 µg·h/mL | AUC/MIC (free), 1-log reduction ± SEM (Staphylococcus aureus [3]; [21]): 132 ± 16 | AUC/MIC (free), EC50 ± SEM (Staphylococcus aureus [3]; [21]): 73 ± 38 | AUC/MIC (free), Stasis ± SEM (Staphylococcus aureus [3]; [21]): 80 ± 5 | MIC [4]: > 64 µg/mL | MIC (Escherichia coli [5]; ATCC25922, Escherichia coli (ATCC 25922 CLSI QC Strain)): 2 µg/mL (≈ 4.1 µM) | MIC (Escherichia coli [5]; ATCC25922, Escherichia coli (TolC- of ATCC 25922)): < 0.06 µg/mL | MIC (Escherichia coli [5]; ATCC25922, Escherichia coli + 2%Human albumin (ATCC 25922)): < 0.06 µg/mL | MIC (Escherichia coli [5]; ATCC35218, Escherichia coli (ATCC 35218 CLSI QC Strain)): 4 µg/mL (≈ 8.21 µM) | MIC (Escherichia coli [5]; Escherichia coli (K12(W3110))): 2 µg/mL (≈ 4.1 µM) | MIC (Clostridium perfringens): 0.5 µg/mL (≈ 1.03 µM) | MIC (Bacteroides fragilis; Bacteroides fragilis (isolates not further specified)): 8 µg/mL (≈ 16.4 µM) | MIC (Bacteroides fragilis; Bacteroides fragilis, ATCC25285, Bacteroides fragilis (ATCC 25285, CLSI QC Strain), read-out: MIC): 2 µg/mL (≈ 4.1 µM) | MIC (Bacteroides fragilis; Bacteroides fragilis, Bacteroides fragilis (isolates not further specified), read-out: MIC): 4 µg/mL (≈ 8.21 µM) | MIC (Haemophilus influenzae [6]; ATCC49619, Haemophilus influenzae (ATCC 49619 CLSI QC Strain)): 0.25 µg/mL (≈ 0.513 µM) | MIC90 (Haemophilus influenzae [6]; Haemophilus influenzae, n=29): 1 µg/mL (≈ 2.05 µM) | MIC range (Haemophilus influenzae [6]; Haemophilus influenzae, n=29): 0.125 to 1 µg/mL | MIC (Finegoldia magna): < 0.03 µg/mL | MIC [7]: 0.03 µg/mL (≈ 0.0615 µM) | MIC (Citrobacter freundii): 16 µg/mL (≈ 32.8 µM) | minimum bactericidal concentrations (MBCs) relative to the MIC [8]: ≤ 2 fold | MIC (Acinetobacter baumannii): 4 µg/mL (≈ 8.21 µM) | MIC (Acinetobacter baumannii; Acinetobacter baumannii (in vivo strain)): 4 µg/mL (≈ 8.21 µM) | MIC (Acinetobacter baumannii; Acinetobacter baumannii (multi-drug resistant)): 16 µg/mL (≈ 32.8 µM) | efficacy in vivo ([9]; S. pyogenes ATC12384 in neutropenic mice): dose-dependent efficacy | AUC value for 1-log reduction [9, 22]: 76 μg·h/mL | AUC value for 2-log reduction [9, 22]: 95 μg·h/mL | AUC value for stasis [9, 22]: 60 µg·h/mL | AUC/MIC (free), EC50 ± SEM (% CV) ([9]; S. pyogenes neutropenic dose response): 151 ± 7 (5%) | MIC (Klebsiella pneumoniae [10]; ATCC700603, Klebsiella pneumoniae (ATCC 700603 CLSI QC Strain)): > 64 µg/mL | MIC (Klebsiella pneumoniae [10]; Klebsiella pneumoniae (In vivo strain)): 16 µg/mL (≈ 32.8 µM) | MIC (Klebsiella pneumoniae [10]; Klebsiella pneumoniae (isolates not further specified)): 64 µg/mL (≈ 131 µM) | MIC (Escherichia coli [11]): 4 µM (≈ 1.95 µg/mL) | MIC (Haemophilus influenzae [12]): 0.33 µM (≈ 0.161 µg/mL) | MIC (Pseudomonas aeruginosa): > 200 µM | MIC (Klebsiella pneumoniae [13]): > 200 µM
